Like-named read-outs stand apart in the source and are kept apart here. Marks after values point to notes of the source that are not given here.
Columns and labels:
COS7 cells = experiment: Transfection of COS7 cells with pCMVβ, β-Gal activity assay (cytofectins having three ammonium groups); type: cell-based; settings: liposome with DOPE, 0.5 μg pCMVβ
Description: (§1) N,N′,N″-trialkyl-N,N,N′,N″,N″-pentamethyl-bis-(2-ammonioethyl)ammoniumbromide Liposomes comprising compound (3) [synthesis according to Example 1B] and DOPE were prepared at 60° C., using DOPE without sonication.
(§2) Cells were incubated for 48 hours at 37° C., 5% CO2 and then lysed.
(§3) The results below (Table 7) indicate the optimal transfection efficiency of the reporter plasmid pCMVβ using the above-mentioned liposomes as a percentage of the highest transfection efficiency obtained by Lipofectamine. R indicates the number of carbons in the alkyl chain. Concentration of DOPE in each liposome may be calculated by multiply the X(DOPE) value by […].

HeLaS3 cells [1] = experiment: Transfection of HeLaS3 cells with pCMVβ, β-Gal activity assay (cytofectins having three ammonium groups); type: cell-based; settings: liposome with DOPE, 0.5 μg pCMVβ
Description: as §1, §2, §3

HeLaS3 cells [2] = experiment: Transfection of HeLaS3 cells with pCMVβ, β-Gal activity assay (variation of counter ion); type: cell-based; settings: 10-2-10 cytofectin with the given counter ion; for Results (%) (optimal transfection efficiency as percentage of the highest efficiency obtained by Lipofectamine): liposome with DOPE, 0.5 μg pCMVβ; for ranking of transfection efficiency among the counter ions (in words) / transfection efficiency compared with Lipofectamine (in words): liposomes with DOPE
Description: Liposomes were used to transfect HeLaS3 cells in vitro with the reporter plasmid pCMVβ (Clontech). […] Cells were incubated for 48 hours at 37° C., 5% CO2 and then lysed.
In similar studies in HeLaS3 cells, the same vector was transfected with liposomes comprising bromide counter ions and the cytofectin, 10-2-10 Ethandiyl-1,2-bis(decyl dimethylammonium).

Huh7 cells = settings: Huh7, liposome with DOPE, 0.5 μg pCMVβ
Description: The resulting liposomes were used to transfect Huh7 cells in vitro with the reporter plasmid pCMVβ (Clontech). Transfection efficiencies, as obtained by OD measurements after cell-lysis and β-Gal activity assay, were compared to efficiencies obtained in parallel with a commercially available liposome-preparation (Lipofectamine, Gibco LTI) and given as percentage of Lipofectamine efficiency. For each transfection, 0.5 μg of pCMVβ (isolated with EndoFree, QIAGEN) was used per well of a 96 well plate. The DNA was diluted to 50 μl with DMEM medium (Gibco LTI) and combined with 1, 2, 3 and 4 μl of the liposome preparations subsequently diluted to 50 μl with DMEM medium. DNA and liposome solutions were mixed and applied to the cells for 6 hours at 37° C., 5% CO2. Afterwards, medium was changed to DMEM containing 10% fetal calf serum. Cells were lysed after 48 h incubation at 37° C., 5% CO2. Twofold determinations each were performed. The values were averaged and the highest efficiency (optimum) within a row was given as percentage value of the highest efficiency (optimum) obtained with Lipofectamine.

[3] = X(DOPE) 0.5, without sonication
[4] = X(DOPE) 0.6, without sonication
[5] = X(DOPE) 0.7, without sonication
[6] = X(DOPE) 0.8, without sonication
[7] = X(DOPE) 0.50, without sonication
[8] = X(DOPE) 0.60, without sonication
[9] = X(DOPE) 0.70, without sonication
[10] = X(DOPE) 0.80, without sonication

| Compound | Results COS7 (%) (optimal transfection efficiency as percentage of the highest efficiency obtained by Lipofectamine) (COS7 cells; [3]) | Results COS7 (%) (optimal transfection efficiency as percentage of the highest efficiency obtained by Lipofectamine) (COS7 cells; [4]) | Results COS7 (%) (optimal transfection efficiency as percentage of the highest efficiency obtained by Lipofectamine) (COS7 cells; [5]) | Results COS7 (%) (optimal transfection efficiency as percentage of the highest efficiency obtained by Lipofectamine) (COS7 cells; [6]) | Results HeLaS3 (%) (optimal transfection efficiency as percentage of the highest efficiency obtained by Lipofectamine) (HeLaS3 cells [1]; [3]) | Results HeLaS3 (%) (optimal transfection efficiency as percentage of the highest efficiency obtained by Lipofectamine) (HeLaS3 cells [1]; [4]) | Results HeLaS3 (%) (optimal transfection efficiency as percentage of the highest efficiency obtained by Lipofectamine) (HeLaS3 cells [1]; [5]) | Results HeLaS3 (%) (optimal transfection efficiency as percentage of the highest efficiency obtained by Lipofectamine) (HeLaS3 cells [1]; [6]) | Results (%) (optimal transfection efficiency as percentage of the highest efficiency obtained by Lipofectamine) (HeLaS3 cells [2]; [7]) | Results (%) (optimal transfection efficiency as percentage of the highest efficiency obtained by Lipofectamine) (HeLaS3 cells [2]; [8]) | Results (%) (optimal transfection efficiency as percentage of the highest efficiency obtained by Lipofectamine) (HeLaS3 cells [2]; [9]) | Results (%) (optimal transfection efficiency as percentage of the highest efficiency obtained by Lipofectamine) (HeLaS3 cells [2]; [10]) | also measured |
| --- | --- | --- | --- | --- | --- | --- | --- | --- | --- | --- | --- | --- | --- |
| CCCCCCCCCC[N+](C)(C)CC[N+](C)(CCCCCCCCCC)CC[N+](C)(C)CCCCCCCCCC.[Br-].[Br-].[Br-] [R = 10, N,N′,N″-tridecyl-N,N,N′,N″,N″-pentamethyl-bis-(2-ammonioethyl)-ammoniumbromide] | 11% | 9% | 16% | 20% | 231% | 222% | 52% | 47% | – | – | – | – | – |
| CCCCCCCCCCCC[N+](C)(C)CC[N+](C)(CCCCCCCCCCCC)CC[N+](C)(C)CCCCCCCCCCCC.[Br-].[Br-].[Br-] [R = 12, N,N′,N″-tridodecyl-N,N,N′,N″,N″-pentamethyl-bis-(2-ammonioethyl)-ammoniumbromide] | 3% | 5% | 8% | 29% | 0% | 9% | 17% | 63% | – | – | – | – | – |
| CCCCCCCCCCCCCC[N+](C)(C)CC[N+](C)(CCCCCCCCCCCCCC)CC[N+](C)(C)CCCCCCCCCCCCCC.[Br-].[Br-].[Br-] [R = 14, N,N′,N″-tritetradecyl-N,N,N′,N″,N″-pentamethyl-bis-(2-ammonioethyl) ammoniumbromide] | 8% | 9% | 12% | 58% | 7% | 7% | 9% | 35% | – | – | – | – | – |
| CCCCCCCCCCCCCCCC[N+](C)(C)CC[N+](C)(CCCCCCCCCCCCCCCC)CC[N+](C)(C)CCCCCCCCCCCCCCCC.[Br-].[Br-].[Br-] [R = 16, N,N′,N″-trihexadecyl-N,N,N′,N″,N″-pentamethyl-bis-(2-ammonioethyl)-ammoniumbromide] | 18% | 16% | 44% | 38% | 31% | 39% | 70% | 75% | – | – | – | – | – |
| CCCCCCCCCCCCCCCCCC[N+](C)(C)CC[N+](C)(CCCCCCCCCCCCCCCCCC)CC[N+](C)(C)CCCCCCCCCCCCCCCCCC.[Br-].[Br-].[Br-] [R = 18, N,N′,N″-trioctadcyl-N,N,N′,N″,N″-pentamethyl-bis-(2-ammonioethyl)-ammoniumbromide] | 20% | 34% | 79% | 93% | 65% | 61% | 80% | 61% | – | – | – | – | – |
| CCCCCCCCCC[N+](C)(C)CC[N+](C)(C)CCCCCCCCCC.O=P([O-])(O)O.O=P([O-])(O)O [dihydrogenphosphate, Ethanediyl-1,2-bis(decyldimethylammonium) dihydrogenphosphate] | – | – | – | – | – | – | – | – | 1966% | > 3230* % | 580% | 615% | ranking of transfection efficiency among the counter ions (in words) (HeLaS3 cells [2]): highest transfection efficiencies; transfection efficiency compared with Lipofectamine (in words) (HeLaS3 cells [2]): higher transfection efficiency values than transfections with Lipofectamine |
| CCCCCCCCCC[N+](C)(C)CC[N+](C)(C)CCCCCCCCCC.O=C([O-])C(=O)[O-] [oxalate, Ethanediyl-1,2-bis(decyldimethylammonium) oxalate] | – | – | – | – | – | – | – | – | 275% | 0% | 0% | 0% | – |
| CCCCCCCCCC[N+](C)(C)CC[N+](C)(C)CCCCCCCCCC.O=S(=O)([O-])[O-] [sulfate, ethanediyl-1,2-bis(dimethyldecylammonium sulfate)] | – | – | – | – | – | – | – | – | 879% | 927% | 265% | 1201% | transfection efficiency compared with Lipofectamine (in words) (HeLaS3 cells [2]): higher transfection efficiency values than transfections with Lipofectamine |
| Ethanediyl-1,2-bis(decyl dimethylammonium) iodide | – | – | – | – | – | – | – | – | > 3230* % | > 3230* % | 686% | 457% | ranking of transfection efficiency among the counter ions (in words) (HeLaS3 cells [2]): highest transfection efficiencies; transfection efficiency compared with Lipofectamine (in words) (HeLaS3 cells [2]): higher transfection efficiency values than transfections with Lipofectamine |
| Ethanediyl-1,2-bis(decyl dimethylammonium) thiosulfate | – | – | – | – | – | – | – | – | 1552% | 1915% | 605% | 844% | transfection efficiency compared with Lipofectamine (in words) (HeLaS3 cells [2]): higher transfection efficiency values than transfections with Lipofectamine |
| Ethanediyl-1,2-bis(dodecyl dimethylammonium bromide) [12-2-12] | – | – | – | – | – | – | – | – | – | – | – | – | Result (%) (transfection efficiency as percentage of Lipofectamine efficiency) (Huh7 cells; [7]): 70%; Result (%) (transfection efficiency as percentage of Lipofectamine efficiency) (Huh7 cells; [8]): 127%; Result (%) (transfection efficiency as percentage of Lipofectamine efficiency) (Huh7 cells; [9]): 138%; Result (%) (transfection efficiency as percentage of Lipofectamine efficiency) (Huh7 cells; [10]): 89% |
| Ethanediyl-1,2-bis(hexadecyl dimethylammonium bromide) [16-2-16] | – | – | – | – | – | – | – | – | – | – | – | – | Result (%) (transfection efficiency as percentage of Lipofectamine efficiency) (Huh7 cells; [7]): 104%; Result (%) (transfection efficiency as percentage of Lipofectamine efficiency) (Huh7 cells; [8]): 124%; Result (%) (transfection efficiency as percentage of Lipofectamine efficiency) (Huh7 cells; [9]): 126%; Result (%) (transfection efficiency as percentage of Lipofectamine efficiency) (Huh7 cells; [10]): 169% |
| Ethanediyl-1,2-bis(octadecyl dimethylammonium bromide) [18-2-18] | – | – | – | – | – | – | – | – | – | – | – | – | Result (%) (transfection efficiency as percentage of Lipofectamine efficiency) (Huh7 cells; [7]): 82%; Result (%) (transfection efficiency as percentage of Lipofectamine efficiency) (Huh7 cells; [8]): 68%; Result (%) (transfection efficiency as percentage of Lipofectamine efficiency) (Huh7 cells; [9]): 105%; Result (%) (transfection efficiency as percentage of Lipofectamine efficiency) (Huh7 cells; [10]): 115% |
| Ethanediyl-1,2-bis(tetradecyl dimethylammonium bromide) [14-2-14] | – | – | – | – | – | – | – | – | – | – | – | – | Result (%) (transfection efficiency as percentage of Lipofectamine efficiency) (Huh7 cells; [7]): 48%; Result (%) (transfection efficiency as percentage of Lipofectamine efficiency) (Huh7 cells; [8]): 74%; Result (%) (transfection efficiency as percentage of Lipofectamine efficiency) (Huh7 cells; [9]): 98%; Result (%) (transfection efficiency as percentage of Lipofectamine efficiency) (Huh7 cells; [10]): 157% |
